Test results from patent US8309550B2, “Kinase inhibitors and their use as pharmaceutical agents” (Shanghai Genomics, Inc., priority 2011, dated 2012).
Read-outs that look alike come from different tables or passages of the source. One block for each compound: values may come before it.

Tests used:
HepG2 = test: 72 h MTT cytotoxicity assay HepG2; type: cell-based; conditions: Homo sapiens; HepG2, 72 hrs
Text: (§1) MIT cytotoxicity assay. The compounds of the invention were subjected to a standard cellular proliferation assay using human cell lines. HeLa cells (Human cervix adenocarcinoma cell line, ATCC NO, CCL-2); A549 cells (Human lung carcinoma cells line, ATCC NO, CCL-185); U2OS cells (Human osteosarcoma cell line, ATCC NO, HTB-96); Eca-109 cells (Human esophageal carcinoma cell line); HepG2 (Human hepatocellular liver carcinoma cell line, ATCC NO, HB-8065); K562 cells (Human chronic myelogenous leukemia cell line, ATCC NO, CCL-243); SK-MEL-28 (Human malignant melanoma cell line, ATCC NO, HTB-72); Molt-4 (Human acute lymphoblastic leukemia cell line, ATCC NO, CRL-1582); H460 (Human large cell lung cancer cell line, ATCC NO, HTB-177); MDA-MB-231 (Human breast adenocarcinoma cell line, ATCC NO, HTB-26); MCF7 (Human breast adenocarcinoma cell line, ATCC NO, HTB-22); ACHN (Human renal cell adenocarcinoma cell line, ATCC NO, CRL-1611); PC-3M (Human prostate adenocarcinoma cell line, ATCC NO CRL-1435); HL60 (Human acute promyelocytic leukemia cell line, ATCC NO, CCL-240); THP-1 (Human acute monocytic leukemia, ATCC NO, TIB-202); Jurkat (Human acute T cell leukemia cell line, ATCC NO, CRL-2063); HCT-116 (Human colorectal carcinoma cell line, ATCC NO, CCL-247); HT-29 (Human colorectal adenocarcinoma cell line, ATCC NO, HTB-38™); WI-38 (Human normal lung cell line, ATCC NO, CCL-75); MRC-5 (Human normal lung cell line, ATCC NO, CCL-171).
(§2) HepG2, MDA-MB-231, WI-38 and MRC-5 cells were obtained from Shanghai Institute of Cell Biology, Chinese Academy of Sciences (Shanghai 200031, China). A549, HeLa, K562, MCF7, ACHN, H460, U2OS, Eca-109, MCF7, HL60, THP-1, Jurkat, HCT-116, HT-29, PC-3M, SK-MEL-28, Molt-4, H460 and […] cells were purchased from ATCC (American Type Culture Collection, USA).
(§3) Standard 72 h MTT (thiazolye blue; 3-[4,5-dimethylthiazol-2-yl]-2,5-diphenyltetrazolium bromide) assays were performed. Briefly, the cell lines used in this study were recovered and cultured according to the conditions recommended. 4000 cells per well were seeded into 96-well plates according to doubling time and incubated overnight at 37° C. Compounds were prepared in DMSO and a ½ dilution series in 100 μl cell culture media, added to cells (in duplicates) with the final DMSO concentration of 0.025%, and incubated for 72 hrs at 37° C. MTT solution (5 mg/ml) was added at 10 μl per well and incubated in the dark at 37° C. for 4 hr. Culture medium and MTT solution was removed. MTT dye was solubilised with 100 μl per well of DMSO with agitation. Absorbance was read at 562 nm and data analyzed using Sigmoid curve-fitting software Origin 6.0 (MicroCal, LLC, USA) to determine IC50 value.

Eca-109 cells = test: 72 h MTT cytotoxicity assay Eca-109; type: cell-based; conditions: Homo sapiens; Eca-109, 72 hrs
Text: as §1, §2, §3

A549 cells = test: 72 h MTT cytotoxicity assay A549; type: cell-based; conditions: Homo sapiens; A549, 72 hrs
Text: as §1, §2, §3

CDK2/cyclinA = target: T1, CDK2/cyclinA (Homo sapiens, UniProt P24941); test: Z'-LYTE kinase assay CDK2/cyclinA; type: biochemical
T1 construct: purchased Invitrogen PV3267
Method: (§4) Kinase assays. The compounds from the example above were tested for their ability to inhibit kinases. Recombinant human CDK2/cyclinA (PV3267), CDK1/cyclinB (PV3292), CDK5/p35 (PV3000) and Aurora A (PV3612) were purchased from Invitrogen (Carlsbad, Calif., USA). Kinase dosage and Z′-LYTE™ substrate for each kinase assay is as follows: CDK2/cyclinA-8 ng/reaction, Ser/Thr 12 Peptide; CDK1/cyclinB-0.8 ng/reaction, Ser/Thr 12 Peptide, CDK5/p35-0.8 ng/reaction, Ser/Thr 12 Peptide, and Aurora A-16 ng/reaction, Ser/Thr 1 Peptide. All enzymatic assays were performed using Z′-LYTE™ Kinase Assay Kits and were carried out following protocols provided by Invitrogen. To prepare stock solutions, compounds were dissolved at 10 mM in 100% DMSO and stored at 4° C. in amber glass vials. Enzyme reactions were initiated by adding recombinant enzyme and Z′-LYTE™ Ser/Thr peptide substrate and ATP mixture to 384-well plates containing diluted test compounds. Kinase and corresponding peptide substrate were incubated for 1 hr at room temperature in the presence of varying amounts of test compound with reaction buffer (20 μM ATP, […] [pH 7.5], 5 mM MgCl2, 0.5 mM EGTA, 0.005% Brij-35). Development buffer was added and incubated for another one hour at room temperature. Reactions were terminated by addition of stop buffer, and fluorescence emission intensity ratio 445 nm/520 nm (excited at 400 nm) was quantified by VICTOR-3 Multilabel Reader (Perkin-Elmer, Waltham, Mass., USA). Phosphorylation was calculated from the emission ratio. IC50 was determined using Sigmoid curve-fitting software Origin 6.0 (MicroCal, LLC, Northampton, Mass., USA).

CDK1/cyclinB = target: T2, CDK1/cyclinB (Homo sapiens, UniProt P06493); test: Z'-LYTE kinase assay CDK1/cyclinB; type: biochemical
T2 construct: purchased Invitrogen PV3292
Method: as §4

SK-MEL-28-luc = test: 72 h MTT cytotoxicity assay SK-MEL-28-luc; type: cell-based; conditions: Homo sapiens
Text: as §1, §2, §3

Aurora A = target: T3, Aurora A (Homo sapiens, UniProt O14965); test: Z'-LYTE kinase assay Aurora A; type: biochemical
T3 construct: purchased Invitrogen PV3612
T3 sequence (O14965 1-403): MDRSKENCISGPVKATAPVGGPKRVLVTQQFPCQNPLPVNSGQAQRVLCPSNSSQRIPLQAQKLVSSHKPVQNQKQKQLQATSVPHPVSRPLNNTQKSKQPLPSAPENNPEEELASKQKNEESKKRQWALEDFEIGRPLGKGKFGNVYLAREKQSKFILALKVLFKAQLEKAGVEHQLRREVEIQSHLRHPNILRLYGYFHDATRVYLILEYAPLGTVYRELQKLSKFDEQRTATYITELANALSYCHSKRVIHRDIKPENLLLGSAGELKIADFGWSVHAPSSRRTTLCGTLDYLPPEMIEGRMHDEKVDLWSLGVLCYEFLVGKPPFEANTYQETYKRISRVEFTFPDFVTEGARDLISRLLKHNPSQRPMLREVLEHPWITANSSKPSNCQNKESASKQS
Method: as §4

ACHN-luc = test: 72 h MTT cell viability ACHN-luc; type: cell-based; conditions: Homo sapiens
Text: as §1, §2, §3

H460-luc = test: 72 h MTT cytotoxicity assay H460-luc; type: cell-based; conditions: Homo sapiens, NCI-H460-Luc; H460-luc, 72 hrs; read-out: Cytotoxicity, MTT 72 hrs, IC50 H460-luc
Text: as §1, §2, §3

CDK9T1 = CDK9T1 (Homo sapiens, UniProt P50750); test: Kinase assay CDK9T1 (Table I); type: biochemical; conditions: read-out: Kinase inhibition, IC50 CDK9T1
Method: [The source words this procedure for another target and reports this target under the same test.] as §4

U2OS cells = test: 72 h MTT cytotoxicity assay U2OS; type: cell-based; conditions: Homo sapiens
Text: as §1, §2, §3

WI-38 = test: 72 h MTT cell viability WI-38 (normal lung); type: cell-based; conditions: Homo sapiens; WI-38, normal lung cell line
Text: as §1, §2, §3

HL-60 = test: 72 h MTT cell viability HL-60; type: cell-based; conditions: Homo sapiens
Text: as §1, §2, §3

CDK5/p35 = target: T4, CDK5/p35 (Homo sapiens, UniProt Q00535); test: Z'-LYTE kinase assay CDK5/p35; type: biochemical
T4 construct: purchased Invitrogen PV3000
Method: as §4

THP-1 = test: 72 h MTT cell viability THP-1; type: cell-based; conditions: Homo sapiens, THP-1; read-out: Cell Viability IC50 THP-1
Text: as §1, §2, §3

Molt-4-luc = test: 72 h MTT cytotoxicity assay Molt-4-luc; type: cell-based; conditions: Homo sapiens
Text: as §1, §2, §3

PC-3M-luc = test: 72 h MTT cell viability PC-3M-luc; type: cell-based; conditions: Homo sapiens
Text: as §1, §2, §3

MDA-MB-231-luc = test: 72 h MTT cell viability MDA-MB-231-luc; type: cell-based; conditions: Homo sapiens
Text: as §1, §2, §3

SRC = SRC (Homo sapiens, UniProt P12931); test: Kinase assay SRC (Table III); conditions: read-out: Target biochemical activity IC50 SRC
Method: (§5) Kinase assays. The compounds were tested for their ability to inhibit kinases.

CDK7 = CDK7 (Homo sapiens, UniProt P50613); test: Kinase assay CDK7 (Table III); conditions: read-out: Target biochemical activity IC50 CDK7
Method: as §5

TSSK1 = target: T5, TSSK1 (Homo sapiens, UniProt Q9BXA7); test: Kinase assay TSSK1 (Table III); conditions: read-out: Target biochemical activity IC50 TSSK1
T5 sequence (Q9BXA7 1-367): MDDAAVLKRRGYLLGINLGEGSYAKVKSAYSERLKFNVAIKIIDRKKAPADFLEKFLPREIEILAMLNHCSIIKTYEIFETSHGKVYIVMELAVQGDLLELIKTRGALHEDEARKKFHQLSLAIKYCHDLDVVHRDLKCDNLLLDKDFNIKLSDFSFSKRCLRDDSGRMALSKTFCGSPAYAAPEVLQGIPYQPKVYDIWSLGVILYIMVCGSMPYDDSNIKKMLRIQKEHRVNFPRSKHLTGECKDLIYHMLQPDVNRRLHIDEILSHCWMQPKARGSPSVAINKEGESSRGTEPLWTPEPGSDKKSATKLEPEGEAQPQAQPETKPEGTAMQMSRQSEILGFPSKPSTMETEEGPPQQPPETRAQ
Method: as §5

Aurora B = Aurora B (Homo sapiens, UniProt Q96GD4); test: Kinase assay Aurora B (Table I); type: biochemical; conditions: Table III; read-out: Target biochemical activity IC50 Aurora B
Method: [The source words this procedure for another target and reports this target under the same test.] as §4

CDK9 = CDK9 (Homo sapiens, UniProt P50750); test: CDK9 inhibitory activity, kinase assays (Table III); conditions: read-out: Target biochemical activity IC50 CDK9
Method: as §5

T2 sequence (P06493 whole entry): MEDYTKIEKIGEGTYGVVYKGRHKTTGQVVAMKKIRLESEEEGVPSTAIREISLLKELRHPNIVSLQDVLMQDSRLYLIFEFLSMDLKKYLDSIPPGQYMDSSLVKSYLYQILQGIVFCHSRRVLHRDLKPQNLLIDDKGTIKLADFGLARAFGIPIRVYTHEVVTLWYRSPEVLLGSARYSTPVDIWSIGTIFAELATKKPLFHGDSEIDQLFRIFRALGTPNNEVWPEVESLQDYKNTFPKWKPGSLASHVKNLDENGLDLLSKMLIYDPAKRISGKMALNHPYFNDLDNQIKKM
T2 sequence (P14635 whole entry partner): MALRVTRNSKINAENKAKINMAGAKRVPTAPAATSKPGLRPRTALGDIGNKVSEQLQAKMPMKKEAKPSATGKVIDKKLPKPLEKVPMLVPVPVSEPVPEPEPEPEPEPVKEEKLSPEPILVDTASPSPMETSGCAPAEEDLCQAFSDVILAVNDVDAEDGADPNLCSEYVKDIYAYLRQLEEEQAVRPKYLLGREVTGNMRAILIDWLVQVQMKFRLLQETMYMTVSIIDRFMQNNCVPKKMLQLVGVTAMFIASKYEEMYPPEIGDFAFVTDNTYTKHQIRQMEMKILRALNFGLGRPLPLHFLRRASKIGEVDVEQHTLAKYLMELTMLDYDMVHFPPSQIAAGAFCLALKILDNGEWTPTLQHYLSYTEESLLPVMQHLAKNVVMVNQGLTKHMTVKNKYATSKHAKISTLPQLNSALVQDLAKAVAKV
T4 sequence (Q00535 whole entry): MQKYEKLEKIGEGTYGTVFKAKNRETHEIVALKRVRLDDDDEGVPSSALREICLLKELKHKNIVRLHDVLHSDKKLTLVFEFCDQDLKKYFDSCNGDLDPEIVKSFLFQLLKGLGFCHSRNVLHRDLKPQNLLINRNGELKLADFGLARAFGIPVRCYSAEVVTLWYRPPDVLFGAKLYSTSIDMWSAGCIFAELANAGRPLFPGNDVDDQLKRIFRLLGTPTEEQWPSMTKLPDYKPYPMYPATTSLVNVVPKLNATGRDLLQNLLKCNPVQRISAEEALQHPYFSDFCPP
T4 sequence (Q15078 whole entry partner): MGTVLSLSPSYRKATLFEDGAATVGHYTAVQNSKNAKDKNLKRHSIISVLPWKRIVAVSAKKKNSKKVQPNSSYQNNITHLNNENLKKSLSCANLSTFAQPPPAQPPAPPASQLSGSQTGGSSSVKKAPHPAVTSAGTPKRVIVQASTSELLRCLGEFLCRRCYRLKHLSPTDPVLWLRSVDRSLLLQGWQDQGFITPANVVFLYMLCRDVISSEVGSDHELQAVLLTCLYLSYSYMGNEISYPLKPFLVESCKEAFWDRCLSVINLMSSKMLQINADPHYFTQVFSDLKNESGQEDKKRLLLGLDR
Sequence of CDK9 (P50750 whole entry, species assumed): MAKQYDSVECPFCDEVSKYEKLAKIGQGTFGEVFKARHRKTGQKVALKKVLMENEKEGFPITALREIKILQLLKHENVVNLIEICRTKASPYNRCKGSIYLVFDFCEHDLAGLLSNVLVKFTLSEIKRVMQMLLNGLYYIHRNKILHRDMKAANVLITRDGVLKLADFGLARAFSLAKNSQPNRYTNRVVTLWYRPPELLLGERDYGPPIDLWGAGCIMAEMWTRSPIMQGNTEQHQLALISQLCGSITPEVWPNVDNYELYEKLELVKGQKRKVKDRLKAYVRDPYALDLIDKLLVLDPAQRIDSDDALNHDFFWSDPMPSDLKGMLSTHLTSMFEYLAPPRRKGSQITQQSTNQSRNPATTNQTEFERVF
Sequence of CDK9 (O60563 whole entry partner, species assumed): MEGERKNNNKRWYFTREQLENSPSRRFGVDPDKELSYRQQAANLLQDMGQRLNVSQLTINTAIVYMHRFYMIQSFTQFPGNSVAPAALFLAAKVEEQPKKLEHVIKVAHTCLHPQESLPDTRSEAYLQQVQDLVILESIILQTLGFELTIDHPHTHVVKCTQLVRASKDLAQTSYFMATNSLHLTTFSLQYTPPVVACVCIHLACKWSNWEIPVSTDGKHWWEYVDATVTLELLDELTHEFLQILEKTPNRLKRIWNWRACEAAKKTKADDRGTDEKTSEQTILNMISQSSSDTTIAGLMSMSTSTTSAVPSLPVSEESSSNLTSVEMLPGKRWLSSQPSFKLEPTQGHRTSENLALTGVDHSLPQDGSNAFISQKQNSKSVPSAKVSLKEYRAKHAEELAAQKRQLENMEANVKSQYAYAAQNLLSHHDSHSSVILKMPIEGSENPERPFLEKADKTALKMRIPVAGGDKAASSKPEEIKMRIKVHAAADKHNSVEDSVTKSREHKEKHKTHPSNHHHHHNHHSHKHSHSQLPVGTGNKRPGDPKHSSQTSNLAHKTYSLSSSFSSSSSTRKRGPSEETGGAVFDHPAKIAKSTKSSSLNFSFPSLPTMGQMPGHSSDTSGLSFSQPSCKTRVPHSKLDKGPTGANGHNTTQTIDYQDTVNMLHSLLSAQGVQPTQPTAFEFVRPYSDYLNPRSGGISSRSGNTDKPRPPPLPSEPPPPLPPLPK
Sequence of CDK9T1 (P50750 whole entry): as the sequence (P50750 whole entry, species assumed) above
Sequence of CDK9T1 (O60563 whole entry partner): as the sequence (O60563 whole entry partner, species assumed) above
Sequence of SRC (P12931 whole entry, species assumed): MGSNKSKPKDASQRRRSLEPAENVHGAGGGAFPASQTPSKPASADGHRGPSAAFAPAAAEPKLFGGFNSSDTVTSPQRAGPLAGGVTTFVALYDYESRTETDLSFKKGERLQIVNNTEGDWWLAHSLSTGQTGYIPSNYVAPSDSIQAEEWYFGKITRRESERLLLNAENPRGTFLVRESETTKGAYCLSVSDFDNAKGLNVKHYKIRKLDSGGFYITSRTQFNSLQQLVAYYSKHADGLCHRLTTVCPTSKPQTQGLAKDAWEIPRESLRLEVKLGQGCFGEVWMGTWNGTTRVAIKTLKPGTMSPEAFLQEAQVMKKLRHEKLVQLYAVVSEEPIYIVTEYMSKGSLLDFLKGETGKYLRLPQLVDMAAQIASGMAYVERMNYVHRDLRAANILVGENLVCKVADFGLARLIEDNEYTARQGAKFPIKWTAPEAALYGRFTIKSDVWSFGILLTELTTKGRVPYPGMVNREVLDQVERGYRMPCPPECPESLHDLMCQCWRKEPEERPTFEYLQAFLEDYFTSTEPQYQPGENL
Sequence of Aurora B (Q96GD4 whole entry): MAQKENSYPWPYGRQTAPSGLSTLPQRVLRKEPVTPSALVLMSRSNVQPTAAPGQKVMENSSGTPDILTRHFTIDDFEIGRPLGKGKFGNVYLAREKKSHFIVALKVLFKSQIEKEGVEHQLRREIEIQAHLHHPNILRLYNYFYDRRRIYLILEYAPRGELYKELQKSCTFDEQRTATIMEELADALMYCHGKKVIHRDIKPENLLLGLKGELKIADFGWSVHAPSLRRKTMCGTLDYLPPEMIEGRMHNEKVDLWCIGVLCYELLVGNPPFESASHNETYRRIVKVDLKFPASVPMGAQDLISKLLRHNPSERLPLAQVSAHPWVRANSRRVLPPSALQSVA
Sequence of CDK7 (P50613 whole entry, species assumed): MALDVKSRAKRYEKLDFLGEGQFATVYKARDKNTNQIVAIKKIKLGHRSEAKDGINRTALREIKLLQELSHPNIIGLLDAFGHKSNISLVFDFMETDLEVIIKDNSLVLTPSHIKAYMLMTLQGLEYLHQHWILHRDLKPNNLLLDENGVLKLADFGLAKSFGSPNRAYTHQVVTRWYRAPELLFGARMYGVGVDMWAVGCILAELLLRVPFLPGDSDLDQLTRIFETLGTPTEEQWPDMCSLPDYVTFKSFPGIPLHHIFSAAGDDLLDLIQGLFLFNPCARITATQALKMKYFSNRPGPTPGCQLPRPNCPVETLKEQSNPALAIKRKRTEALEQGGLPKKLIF
Sequence of CDK7 (P51946 whole entry partner, species assumed): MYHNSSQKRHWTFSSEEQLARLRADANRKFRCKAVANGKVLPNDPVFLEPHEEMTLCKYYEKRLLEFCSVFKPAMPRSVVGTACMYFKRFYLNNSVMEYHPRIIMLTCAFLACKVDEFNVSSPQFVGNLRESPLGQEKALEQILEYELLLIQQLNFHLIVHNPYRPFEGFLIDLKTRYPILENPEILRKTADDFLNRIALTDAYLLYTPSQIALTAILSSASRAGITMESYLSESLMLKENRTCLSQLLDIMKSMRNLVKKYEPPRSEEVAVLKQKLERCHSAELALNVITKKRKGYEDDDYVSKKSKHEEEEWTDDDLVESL
Sequence of CDK7 (P51948 whole entry partner, species assumed): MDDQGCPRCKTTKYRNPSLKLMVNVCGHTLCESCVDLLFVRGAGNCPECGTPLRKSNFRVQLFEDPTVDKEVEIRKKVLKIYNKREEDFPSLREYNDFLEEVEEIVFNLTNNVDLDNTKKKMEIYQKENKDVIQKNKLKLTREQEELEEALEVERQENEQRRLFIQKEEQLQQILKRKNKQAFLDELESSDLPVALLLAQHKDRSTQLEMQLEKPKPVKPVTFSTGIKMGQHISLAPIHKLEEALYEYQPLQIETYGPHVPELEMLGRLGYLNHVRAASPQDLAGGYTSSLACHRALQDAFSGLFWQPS

- IC50 (CDK2/cyclinA; read-out: Kinase inhibition, IC50 CDK2A): 3.8 nM
- IC50 (CDK1/cyclinB; read-out: Kinase inhibition, IC50 CDK1B): 180 nM
- IC50 (Aurora A; read-out: Kinase inhibition, IC50 Aurora A): 1280 nM
- IC50 (ACHN-luc): 510 nM
- IC50 (CDK9T1): 24 nM
- IC50 (HL-60): 430 nM
- IC50 (CDK5/p35; read-out: Kinase inhibition, IC50 CDK5/p35): 190 nM
- IC50 (THP-1): 2740 nM
- IC50 (PC-3M-luc): 890 nM
- IC50 (MDA-MB-231-luc): 440 nM
Structure (SMILES): CCn1cc(-c2ccnc(Nc3cccc(S(N)(=O)=O)c3)n2)c2ccnc(Cl)c21 [Compound 73, 3-(4-(7-Chloro-1-ethyl-1H-pyrrolo[2,3-c]pyridin-3-yl)pyrimidin-2-ylamino)benzenesulfonamide]
- IC50 (HepG2): 180 nM
- IC50 (Eca-109 cells): > 10000 nM
- IC50 (A549 cells): 370 nM
- IC50 (SK-MEL-28-luc): 490 nM
- IC50 (H460-luc): 315 nM
- IC50 (U2OS cells): 410 nM
- IC50 (WI-38): > 10000 nM
- IC50 (Molt-4-luc): 430 nM

- IC50 (CDK2/cyclinA; Table III, read-out: Target biochemical activity IC50 CDK2): 16 nM
- IC50 (CDK1/cyclinB; Table III, read-out: Target biochemical activity IC50 CDK1): 190 nM
- IC50 (SRC): 4560 nM
- IC50 (Aurora A; Table III, read-out: Target biochemical activity IC50 Aurora A): 2460 nM
- IC50 (CDK7): > 10000 nM
- IC50 (CDK5/p35; Table III, read-out: Target biochemical activity IC50 CDK5): 350 nM
- IC50 (TSSK1): 1490 nM
- IC50 (Aurora B): > 10000 nM
- IC50 (CDK9): 95 nM
Structure (SMILES): CCn1cc(-c2ccnc(Nc3ccc(O)cc3)n2)c2ccnc(Cl)c21 [SG49]
